This series in a line: logP determination by HPLC (EEC-Directive 79/831 Annex V. A8). It counts as physicochemical. Conditions: gradient method, acetonitrile/0.1% aqueous phosphoric acid.
By logP is commonly meant a log measure of how a compound divides between an organic and an aqueous phase. As to `CON=C(C(=O)N(C)SC(F)(Cl)Cl)c1ccccc1Oc1ncnc(Oc2ccccc2F)c1F` [Example 105], the logP is given as 4.73.
`CON=C(C(=O)N(C)SC(F)(Cl)Cl)c1ccccc1Oc1ncnc(Oc2cccc(C(F)(F)F)c2)c1F` [Example 106] returned a logP of 5.11.
As for `CON=C(C(=O)N(C)SC(F)(Cl)Cl)c1ccccc1Oc1ncnc(Oc2ccc(C#N)cc2)c1F` [Example 107], the logP stood at 4.34.
Then `CON=C(C(=O)N(C)SC(F)(Cl)Cl)c1ccccc1Oc1ncnc(Oc2ccc(OC)cc2)c1F` [Example 108], with 4.63; and `CCc1ccccc1Oc1ncnc(Oc2ccccc2C(=NOC)C(=O)N(C)SC(F)(Cl)Cl)c1F` [Example 109], with 5.25; and `CCOc1ccccc1Oc1ncnc(Oc2ccccc2C(=NOC)C(=O)N(C)SC(F)(Cl)Cl)c1F` [Example 110], with 4.86.
Turning to `CON=C(C(=O)N(C)SC(F)(Cl)Cl)c1ccccc1Oc1ncnc(Oc2ccccc2C(C)(C)C)c1F` [Example 111], the log partition coefficient (logP) worked out at 5.73.
The value for `CON=C(C(=O)N(C)SC(F)(Cl)Cl)c1ccccc1Oc1ncnc(Oc2ccc(C(F)(F)F)cc2OC)c1F` [Example 112] was 5.16; that for `CON=C(C(=O)N(C)SC(F)(Cl)Cl)c1ccccc1Oc1ncnc(Oc2cccc(C)c2[N+](=O)[O-])c1F` [Example 113] was 4.71.
The value for `CON=C(C(=O)N(C)SC(F)(Cl)Cl)c1ccccc1Oc1ncnc(Oc2ccc(F)cc2Cl)c1F` [Example 114] was 5.14.
The value for `CON=C(C(=O)N(C)SC(F)(Cl)Cl)c1ccccc1Oc1ncnc(Oc2ccc(Cl)c(Cl)c2)c1F` [Example 115] was 5.58.
As to `CON=C(C(=O)N(C)SC(F)(Cl)Cl)c1ccccc1Oc1ncnc(Oc2ccc(F)cc2F)c1F` [Example 116], the logP was determined as 4.85.
The value for `CON=C(C(=O)N(C)SC(F)(Cl)Cl)c1ccccc1Oc1ncnc(Oc2cccc(Cl)c2)c1F` [Example 117] was 5.14; that for `CON=C(C(=O)N(C)SC(F)(Cl)Cl)c1ccccc1Oc1ncnc(Oc2cccc(F)c2)c1F` [Example 118] was 4.76.
As for `CON=C(C(=O)N(C)SC(F)(Cl)Cl)c1ccccc1Oc1ncnc(Oc2ccccc2C#N)c1F` [Example 119], the lipophilicity (logP) came to 4.28.
For the compound `CON=C(C(=O)N(C)SC(F)(Cl)Cl)c1ccccc1Oc1ncnc(Oc2ccc(C)cc2)c1F` [Example 120], the logP is given as 5.02.
The value for `CON=C(C(=O)N(C)SC(F)(Cl)Cl)c1ccccc1Oc1ncnc(Oc2cc(C)ccc2C)c1F` [Example 121] was 5.34; that for `C=CCc1ccccc1Oc1ncnc(Oc2ccccc2C(=NOC)C(=O)N(C)SC(F)(Cl)Cl)c1F` [Example 122] was 5.3.
The value for `CON=C(C(=O)N(C)SC(F)(Cl)Cl)c1ccccc1Oc1ncnc(Oc2ccccc2C(C)C)c1F` [Example 123] was 5.56.
Compound `CON=C(C(=O)N(C)SC(F)(Cl)Cl)c1ccccc1Oc1ncnc(Oc2cc(C)ccc2C(C)C)c1F` [Example 124] registered a logP of 5.88.
As for `CON=C(C(=O)N(C)SC(F)(Cl)Cl)c1ccccc1Oc1ncnc(Oc2cc(Cl)ccc2C)c1F` [Example 125], the logP stood at 5.46.
Then `CON=C(C(=O)N(C)SC(F)(Cl)Cl)c1ccccc1Oc1ncnc(Oc2cccc(C(F)(F)F)c2Cl)c1F` [Example 126], with 5.42; and `CON=C(C(=O)N(C)SC(F)(Cl)Cl)c1ccccc1Oc1ncnc(Oc2ccc(I)cc2)c1F` [Example 127], with 5.35.
Regarding `CON=C(C(=O)N(C)SC(F)(Cl)Cl)c1ccccc1Oc1ncnc(Oc2cccc(C)c2)c1F` [Example 128], the lipophilicity (logP) is reported as 4.98.
The value for `CON=C(C(=O)N(C)SC(F)(Cl)Cl)c1ccccc1Oc1ncnc(Oc2ccccc2OC)c1F` [Example 129] was 4.57; that for `CON=C(C(=O)N(C)SC(F)(Cl)Cl)c1ccccc1Oc1ncnc(Oc2cccc(OC)c2)c1F` [Example 130] was 4.68.
Then `CCc1ccc(Oc2ncnc(Oc3ccccc3C(=NOC)C(=O)N(C)SC(F)(Cl)Cl)c2F)cc1` [Example 131], with 5.38; and `CON=C(C(=O)N(C)SC(F)(Cl)Cl)c1ccccc1Oc1ncnc(Oc2cccc(C(C)(C)C)c2)c1F` [Example 132], with 5.84; and `CON=C(C(=O)N(C)SC(F)(Cl)Cl)c1ccccc1Oc1ncnc(Oc2ccc(OC(F)(F)F)cc2)c1F` [Example 133], with 5.3.
In the case of `CCC(C)c1ccccc1Oc1ncnc(Oc2ccccc2C(=NOC)C(=O)N(C)SC(F)(Cl)Cl)c1F` (stereo not shown) [Example 134], the log partition coefficient (logP) is reported as 5.86.
Then `CON=C(C(=O)N(C)SC(F)(Cl)Cl)c1ccccc1Oc1ncnc(Oc2ccc(N)c(Cl)c2Cl)c1F` [Example 136], with 4.68; and `CCc1cc(C)cc(Oc2ncnc(Oc3ccccc3C(=NOC)C(=O)N(C)SC(F)(Cl)Cl)c2F)c1` [Example 137], with 5.76; and `CON=C(C(=O)N(C)SC(F)(Cl)Cl)c1ccccc1Oc1ncnc(Oc2ccc(OC(F)(F)F)cc2C)c1F` [Example 138], with 5.65.
`CON=C(C(=O)N(C)SC(F)(Cl)Cl)c1ccccc1Oc1ncnc(Oc2ccc(SC(F)(F)F)cc2)c1F` [Example 139] came in with a logP of 5.6.
Compound `CON=Cc1ccccc1Oc1ncnc(Oc2ccccc2C(=NOC)C(=O)N(C)SC(F)(Cl)Cl)c1F` [Example 140] had a logP of 5.03.
As for `CON=C(C(=O)N(C)SC(F)(Cl)Cl)c1ccccc1Oc1cc(Oc2cccc(Cl)c2C)ncn1` [Example 141], the logP was 5.29.
Take `CON=C(C(C)=NOCc1ccccc1C(=NOC)C(=O)N(C)SC(F)(Cl)Cl)c1ccccc1` [Example 143]: the log partition coefficient (logP) is listed as 5.48.
As for `CON=C(C(=O)N(C)SC(F)(Cl)Cl)c1ccccc1OC(=O)c1c(F)cccc1F` [Example 144], the log partition coefficient (logP) was found to be 4.41.
The value for `CON=C(C(=O)N(C)SC(F)(Cl)Cl)c1ccccc1Oc1ncnc(OC)c1F` [Example 145] was 5.45; that for `CON=C(C(=O)N(C)SC(F)(Cl)Cl)c1ccccc1OC` [Example 146] was 3.69.

For the origin of these results see patent publication US6403600B1, “Methoximinophenylacetic acid amides” (Bayer Aktiengesellschaft, priority 1998, dated 2002).
